Patent US9783510B2, “Small molecule mediated transcriptional induction of E-cadherin” (Vanderbilt University, priority 2014, dated 2017)

Key:
[1] = test system: E-cadherin expression in SW620 cells; test: E-cadherin expression, in-cell Western (ICW), SW620 cells; assay type: cell-based; conditions: Homo sapiens
How it was run: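 SW620 cells were treated with compound for 24 h in RPMI 1640 (single-point at 10 μM; EC50 also determined), in quadruplicate. After methanol fixation, in-cell Western with anti-E-cadherin and anti-α-tubulin primaries and IRDye 800/700 secondaries. Read on an Odyssey IR imager.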

HMEC-1 cells [2] = test: E-cadherin, VE-cadherin, Vimentin and histone marks in HMEC-1 cells (qPCR, Western blot); assay type: cell-based, human; conditions: HMEC-1, 10 μM, by 12 and 24 hours after treatment
[3] = test system: human E-cadherin promoter; test: E-cadherin promoter luciferase reporter assay in SW620inv cells; assay type: cell-based; conditions: 10 μM, 24 hours
Description: The 1.4 kbp E-cadherin promoter plasmid (E1) and deletion plasmids E2-E8 were a gift from Dr. Eric Fearon at The University of Michigan (Liu, Y. N., et al. (2005) Onocogene 24, 8277-8290). All plasmid constructs were sequenced at the Vanderbilt University Sequencing Core to confirm the E-cadherin promoter fragments using the PCR primers listed in Table I and herein below. Luciferase assays were performed as previously described (Freeman, T. J., et al. (2012) Gastroenterology 142, 562-572).
Compound 13 (259Y) induces>20-fold increases in reporter activation driven by the 1130 bp promoter region in an assay in which an exogenous firefly luciferase gene is driven by defined regions of the human E-cadherin promoter. This region includes consensus binding sequences for several known transcription factors, including AML1, P300, Snail and SP1 (Liu, Y. N., et al. (2005) Oncogene 24, 8277-8290). […]
Referring to FIG. 5, a diagram of the 8 E-cadherin promoter reporter plasmids (full length and truncations) utilized to determine promoter elements critical for promoter activity is shown. […] Fold change is Log2^−ΔΔCp of the normalized fluorescence signal relative to the mean of the DMSO treated group. Statistical significance was calculated using a two-way ANOVA (Holm-Sidak method): ****=p<0.00005, ***=p<0.0005, **=p<0.005, *=p<0.05. […]

HMEC-1 cells [4] = test: WST-1 metabolism (proliferation) assay, HMEC-1 cells; assay type: cell-based, human; conditions: WST-1, 10 μM, 24 h and 48 h
Description: Proliferation, migration, and tubular formation are essential characteristics of endothelial cells for the generation of new blood vessels. […] The lack of effect on cell proliferation is consistent with the lack of effect of compounds of similar class on the proliferation of SW620 and H520 cells (Stoops, S. L., et al. (2011) ACS Chemical Biology 6, 452-465). A scratch wound healing assay was performed on cultured HMEC-1 cells. Confluent monolayers of HMEC-1 cells were disrupted mechanically by scraping them with a sterile pipette tip. Within the observation period of 24 hours, Compound 13 treatment antagonized HMEC-1 monolayer wound healing (FIG. 12).
Referring to FIG. 11, HMEC-1 cells were treated with DMSO or 10 μM Compound 13 (259Y) using 96 wells plate, WST-1 was added (10 μL per well, incubate 37° C. for one hour, read at 450 nm reference 562 nm) at 24 h and 48 h. The blank control was a well with media but NO CELLS+wst-1. Each data point is a biological replicate that is the average of three technical replicates minus the average of three blank wells.

[5] = test system: E-cadherin mRNA in SW620inv cells; test: qPCR of E-cadherin specific mRNA, SW620inv cells; assay type: cell-based; conditions: 10 μM, 6 hours post-treatment, relative to DMSO

O=C(NCCCNC(=O)c1cccnc1O)c1cc(-c2ccccc2)on1 [Compound 13, N-(3-(2-hydroxynicotinamido)propyl)-5-phenylisoxazole-3-carboxamide]
fold induction at 10 µM ([1]; SW-620, 24 h, change in expression level of E-cadherin in response to 10 μM compound, 24 hours, SW620 cells): 5.23 | EC50 ([1]; SW-620, inducement of E-cadherin expression in SW620 cells): 4.1 µM | induced expression of E-cadherin mRNA species (HMEC-1 cells [2]): > 5 × | reporter activation ([3]; 1130 bp promoter region): > 20 fold | reporter activation above control after serial deletion of distal promoter regions ([3]; deletion incl. −492 bp to −330 bp): > 10 × | HMEC-1 cell proliferation (HMEC-1 cells [4]): no significant effect | increase of E-cadherin specific mRNA [5]: 27 fold
